From publication PMC11574760, “Altering Active-Site Loop Dynamics Enhances Standalone Activity of the Tryptophan Synthase Alpha Subunit” (ACS Catalysis, 2024)

Assays:
Test in all cases: steady-state kinetics, coupled assay with GAP dehydrogenase (NAD+)
[1] = biological target: T1, ZmTrpA + ZmTrpB (Zea mays, UniProt B2Y0K4); type: biochemical; settings: retro-aldol cleavage, 100 mM EPPS/KOH pH 7.5, 180 mM KCl, 40 μM PLP, 6 mM NAD+, 20 mM Na3AsO4, 100 mM L-serine, 30 °C
T1 construct: gene TSA; alpha-beta-beta-alpha tryptophan synthase complex, TrpB in excess; construct details only in supplement; with Tryptophan synthase beta chain, chloroplastic
T1 sequence (B2Y0K4 entry or part of it): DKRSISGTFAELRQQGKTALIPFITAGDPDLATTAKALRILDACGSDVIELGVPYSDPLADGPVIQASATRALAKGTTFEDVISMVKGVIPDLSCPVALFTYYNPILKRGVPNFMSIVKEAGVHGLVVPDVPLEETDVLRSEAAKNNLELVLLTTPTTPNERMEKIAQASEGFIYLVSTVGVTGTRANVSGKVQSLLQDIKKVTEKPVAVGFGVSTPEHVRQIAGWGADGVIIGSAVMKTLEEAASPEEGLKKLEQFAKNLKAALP
T1 sequence (P43284 46-443, further chain): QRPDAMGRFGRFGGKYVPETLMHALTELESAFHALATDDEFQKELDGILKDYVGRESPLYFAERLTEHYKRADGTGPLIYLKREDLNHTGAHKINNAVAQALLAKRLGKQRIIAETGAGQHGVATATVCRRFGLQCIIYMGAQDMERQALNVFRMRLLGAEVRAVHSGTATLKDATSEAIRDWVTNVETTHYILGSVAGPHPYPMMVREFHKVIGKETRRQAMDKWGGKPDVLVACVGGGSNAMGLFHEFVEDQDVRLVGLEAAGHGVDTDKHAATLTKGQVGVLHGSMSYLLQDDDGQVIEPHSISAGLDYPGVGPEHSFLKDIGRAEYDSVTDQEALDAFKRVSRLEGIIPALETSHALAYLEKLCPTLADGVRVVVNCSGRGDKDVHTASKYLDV
Source text: steady-state kinetics, coupled assay with GAP dehydrogenase (NAD+) on ZmTrpA + ZmTrpB

[2] = biological target: T2, ZmTrpA^L6BX1 + ZmTrpB (Zea mays, UniProt B2Y0K4, T232V/V233N/T238P/S243N/G244P/K245R, form not given); type: biochemical; settings: retro-aldol cleavage, 100 mM EPPS/KOH pH 7.5, 180 mM KCl, 40 μM PLP, 6 mM NAD+, 20 mM Na3AsO4, 100 mM L-serine, 30 °C, variant ZmTrpA^SPM4-L6BX1
T2 construct: gene TSA; ZmTrpA with loop 6 of ZmBX1, in complex with ZmTrpB in excess; with Tryptophan synthase beta chain, chloroplastic
T2 sequence (P43284 46-443, stated change not applied, form open): as the sequence (P43284 46-443, further chain) above
T2 sequence (B2Y0K4 entry or part of it T232V/V233N/T238P/S243N/G244P/K245R, form open): as the sequence (B2Y0K4 entry or part of it) above, with T179V, V180N, T185P, S190N, G191P, K192R counted along it
Source text: steady-state kinetics, coupled assay with GAP dehydrogenase (NAD+) on ZmTrpA^L6BX1 + ZmTrpB

[3] = biological target: T3, ZmTrpA^L6BX1 (ZmTrpA_L6zmBX1) (Zea mays, UniProt B2Y0K4, T232V/V233N/T238P/S243N/G244P/K245R); type: biochemical; settings: retro-aldol cleavage; 100 mM EPPS/KOH pH 7.5, 180 mM KCl, 40 μM PLP, 6 mM NAD+, 20 mM Na3AsO4, 30 °C; no TrpB; cited from earlier work
T3 construct: gene TSA; ZmTrpA with loop 6 replaced by that of ZmBX1; without TrpB
T3 sequence (B2Y0K4 entry or part of it T232V/V233N/T238P/S243N/G244P/K245R): as the sequence (B2Y0K4 entry or part of it) above, with T179V, V180N, T185P, S190N, G191P, K192R counted along it
Source text: steady-state kinetics, coupled assay with GAP dehydrogenase (NAD+) on ZmTrpA^L6BX1 (ZmTrpA_L6zmBX1)

[4] = substrate: O=P(O)(O)OC[C@@H](O)[C@@H](O)c1c[nH]c2ccccc12; type: biochemical, Zea mays; settings: retro-aldol cleavage, 100 mM EPPS/KOH pH 7.5, 180 mM KCl, 40 μM PLP, 6 mM NAD+, 20 mM Na3AsO4, 30 °C, no TrpB
Source text: steady-state kinetics, coupled assay with GAP dehydrogenase (NAD+) on ZmBX1

| Km ([1]; variant ZmTrpA^SPM4) | Km ([1]; variant ZmTrpA^SPM6) | Km [2] | Molecule | Km [3] | Km [4] | kcat [4] | kcat/Km [4] |
| --- | --- | --- | --- | --- | --- | --- | --- |
| 134 ± 9 µM | 103 ± 13.1 µM | 70 ± 12 µM | O=P(O)(O)OC[C@@H](O)[C@@H](O)c1c[nH]c2ccccc12 [indole-glycerol phosphate] | 3350 ± 340 µM |  |  |  |
|  |  |  | ZmBX1 (Zea mays) (protein, standalone enzyme; construct details only in supplement) SRPVSDTMAALMAKGKTAFIPYITAGDPDLATTAEALRLLDGCGADVIELGVPCSDPYIDGPIIQASVARALASGTTMDAVLEMLREVTPELSCPVVLLSYYKPIMSRSLAEMKEAGVHGLIVPDLPYVAAHSLWSEAKNNNLELVLLTTPAIPEDRMKEITKASEGFVYLVSVNGVTGPRANVNPRVESLIQEVKKVTNKPVAVGFGISKPEHVKQIAQWGADGVIIGSAMVRQLGEAASPKQGLRRLEEYARGMKNALP |  | 11 ± 1.3 µM | 5.2 ± 0.13 s⁻¹ | 474000 ± 56100 M⁻¹ s⁻¹ |
